Earlier results, collected in US12527767B2 (priority 2019, dated 2026).

Test system: corneal neovascularization
Details: rabbit, in vivo

**Q.** With `O=C1O[C@H]([C@@H](O)CO)C(O)=C1O` [ascorbic acid] as the compound, how does the corneal neovascularization read?
**A.** attenuated corneal neovascularization
